From the supplement of paper PMC10307832

How the values were obtained:
Assay in all cases: relative viability (nuclei count vs DMSO), 5 days (fraction); higher = more cells survive
NCI-H647 = tested on: NCI-H647
How it was run: (§1)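 Values are medians from duplicate plates. Each reflects relative viability, defined as the nuclei count of treated wells over that of vehicle wells. Lung cancer cell lines in 1536-well plates were pin-tool dosed one day after seeding with one drug alone or with a fixed anchor-drug dose plus five library-drug doses (not always all listed) in √10 steps, then fixed, stained and imaged at 4× after 5 days.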

CAL-12T = tested on: CAL-12T
How it was run: as §1

NCI-H1395 = tested on: NCI-H1395
How it was run: as §1

COR-L23 = tested on: COR-L23
How it was run: as §1

NCI-H2170 = tested on: NCI-H2170
How it was run: as §1

NCI-H650 = tested on: NCI-H650
How it was run: as §1

NCI-H2023 = tested on: NCI-H2023
How it was run: as §1

LXF-289 = tested on: LXF-289
How it was run: as §1

A-427 = tested on: A-427
How it was run: as §1

NCI-H1975 = tested on: NCI-H1975
How it was run: as §1

EPLC-272H = tested on: EPLC-272H
How it was run: as §1

HOP-62 = tested on: HOP-62
How it was run: as §1

RERF-LC-KJ = tested on: RERF-LC-KJ
How it was run: as §1

NCI-H596 = tested on: NCI-H596
How it was run: as §1

NCI-H3122 = tested on: NCI-H3122
How it was run: as §1

PC-14 = tested on: PC-14
How it was run: as §1

SK-MES-1 = tested on: SK-MES-1
How it was run: as §1

NCI-H1651 = tested on: NCI-H1651
How it was run: as §1

NCI-H1993 = tested on: NCI-H1993
How it was run: as §1

LCLC-103H = tested on: LCLC-103H
How it was run: as §1

NCI-H2085 = tested on: NCI-H2085
How it was run: as §1

COR-L 105 = tested on: COR-L 105
How it was run: as §1

NCI-H2087 = tested on: NCI-H2087
How it was run: as §1

Work on O=C(O)CCCCC(CCSCc1ccccc1)SCc1ccccc1 (stereo not given) [CPI-613] + O=C(c1cc(Cc2n[nH]c(=O)c3ccccc23)ccc1F)N1CCN(C(=O)C2CC2)CC1 [Olaparib] (partner 8 µM) yielded a relative viability (NCI-H647; first compound 5 µM) of 0.426, a relative viability (NCI-H647; first compound 15.81 µM) of 0.528 and a relative viability (NCI-H647; first compound 50 µM) of 0.331. It also gave a relative viability (NCI-H647; first compound 158.11 µM) of 0.0348, a relative viability (NCI-H647; first compound 500 µM) of 0.0133 and a relative viability (CAL-12T; first compound 5 µM) of 0.72. It also gave a relative viability (CAL-12T; first compound 15.81 µM) of 0.634, a relative viability (CAL-12T; first compound 50 µM) of 0.627 and a relative viability (CAL-12T; first compound 158.11 µM) of 0.473. For the same molecule, the relative viability (CAL-12T; first compound 500 µM) was 0.488, the relative viability (NCI-H1395; first compound 5 µM) was 0.473 and the relative viability (NCI-H1395; first compound 15.81 µM) was 0.479. The relative viability (NCI-H1395; first compound 50 µM) was 0.469, the relative viability (NCI-H1395; first compound 158.11 µM) was 0.436 and the relative viability (NCI-H1395; first compound 500 µM) was 0.266. For the same molecule, the relative viability (COR-L23; first compound 5 µM) was 0.369, the relative viability (COR-L23; first compound 15.81 µM) was 0.299 and the relative viability (COR-L23; first compound 50 µM) was 0.389. For the same molecule, the relative viability (COR-L23; first compound 158.11 µM) was 0.175, the relative viability (COR-L23; first compound 500 µM) was 0.0294 and the relative viability (NCI-H2170; first compound 5 µM) was 0.591. For the same molecule, the relative viability (NCI-H2170; first compound 15.81 µM) was 0.554, the relative viability (NCI-H2170; first compound 50 µM) was 0.534 and the relative viability (NCI-H2170; first compound 158.11 µM) was 0.403. It also gave a relative viability (NCI-H2170; first compound 500 µM) of 0.18, a relative viability (NCI-H650; first compound 5 µM) of 0.404 and a relative viability (NCI-H650; first compound 15.81 µM) of 0.393. It also gave a relative viability (NCI-H650; first compound 50 µM) of 0.366, a relative viability (NCI-H650; first compound 158.11 µM) of 0.339 and a relative viability (NCI-H650; first compound 500 µM) of 0.359. It also gave a relative viability (NCI-H2023; first compound 5 µM) of 0.47, a relative viability (NCI-H2023; first compound 15.81 µM) of 0.425 and a relative viability (NCI-H2023; first compound 50 µM) of 0.41. For the same molecule, the relative viability (NCI-H2023; first compound 158.11 µM) was 0.134, the relative viability (NCI-H2023; first compound 500 µM) was 0.009 and the relative viability (LXF-289; first compound 5 µM) was 0.988. It also gave a relative viability (LXF-289; first compound 15.81 µM) of 1, a relative viability (LXF-289; first compound 50 µM) of 1 and a relative viability (LXF-289; first compound 158.11 µM) of 0.692. It also gave a relative viability (LXF-289; first compound 500 µM) of 0.8, a relative viability (A-427; first compound 5 µM) of 0.775 and a relative viability (A-427; first compound 15.81 µM) of 0.7. It also gave a relative viability (A-427; first compound 50 µM) of 0.711, a relative viability (A-427; first compound 158.11 µM) of 0.229 and a relative viability (A-427; first compound 500 µM) of 0.177. It also gave a relative viability (NCI-H1975; first compound 5 µM) of 0.745, a relative viability (NCI-H1975; first compound 15.81 µM) of 0.758 and a relative viability (NCI-H1975; first compound 50 µM) of 0.85. The relative viability (NCI-H1975; first compound 158.11 µM) was 0.563, the relative viability (NCI-H1975; first compound 500 µM) was 0.099 and the relative viability (EPLC-272H; first compound 5 µM) was 0.812. It also gave a relative viability (EPLC-272H; first compound 15.81 µM) of 0.683, a relative viability (EPLC-272H; first compound 50 µM) of 0.653 and a relative viability (EPLC-272H; first compound 158.11 µM) of 0.198. It also gave a relative viability (EPLC-272H; first compound 500 µM) of 0.083, a relative viability (HOP-62; first compound 5 µM) of 0.298 and a relative viability (HOP-62; first compound 15.81 µM) of 0.471. For the same molecule, the relative viability (HOP-62; first compound 50 µM) was 0.368, the relative viability (HOP-62; first compound 158.11 µM) was 0.459 and the relative viability (HOP-62; first compound 500 µM) was 0.459. It also gave a relative viability (RERF-LC-KJ; first compound 5 µM) of 0.979, a relative viability (RERF-LC-KJ; first compound 15.81 µM) of 0.83 and a relative viability (RERF-LC-KJ; first compound 50 µM) of 0.804. The relative viability (RERF-LC-KJ; first compound 158.11 µM) was 0.273, the relative viability (RERF-LC-KJ; first compound 500 µM) was 0.133 and the relative viability (NCI-H596; first compound 5 µM) was 0.723. The relative viability (NCI-H596; first compound 15.81 µM) was 0.723, the relative viability (NCI-H596; first compound 50 µM) was 0.633 and the relative viability (NCI-H596; first compound 158.11 µM) was 0.323. It also gave a relative viability (NCI-H596; first compound 500 µM) of 0.0561, a relative viability (NCI-H3122; first compound 5 µM) of 0.672 and a relative viability (NCI-H3122; first compound 15.81 µM) of 0.589. It also gave a relative viability (NCI-H3122; first compound 50 µM) of 0.574, a relative viability (NCI-H3122; first compound 158.11 µM) of 0.442 and a relative viability (NCI-H3122; first compound 500 µM) of 0.609. It also gave a relative viability (PC-14; first compound 5 µM) of 0.283, a relative viability (PC-14; first compound 15.81 µM) of 0.231 and a relative viability (PC-14; first compound 50 µM) of 0.262. The relative viability (PC-14; first compound 158.11 µM) was 0.078, the relative viability (PC-14; first compound 500 µM) was 0.0073 and the relative viability (SK-MES-1; first compound 5 µM) was 0.641. The relative viability (SK-MES-1; first compound 15.81 µM) was 0.635, the relative viability (SK-MES-1; first compound 50 µM) was 0.556 and the relative viability (SK-MES-1; first compound 158.11 µM) was 0.163. It also gave a relative viability (SK-MES-1; first compound 500 µM) of 0.0936, a relative viability (NCI-H1651; first compound 5 µM) of 0.189 and a relative viability (NCI-H1651; first compound 15.81 µM) of 0.192. It also gave a relative viability (NCI-H1651; first compound 50 µM) of 0.189, a relative viability (NCI-H1651; first compound 158.11 µM) of 0.198 and a relative viability (NCI-H1651; first compound 500 µM) of 0.175. It also gave a relative viability (NCI-H1993; first compound 5 µM) of 1.15, a relative viability (NCI-H1993; first compound 15.81 µM) of 0.918 and a relative viability (NCI-H1993; first compound 50 µM) of 0.908. It also gave a relative viability (NCI-H1993; first compound 158.11 µM) of 0.6, a relative viability (NCI-H1993; first compound 500 µM) of 0.421 and a relative viability (LCLC-103H; first compound 5 µM) of 0.755. The relative viability (LCLC-103H; first compound 15.81 µM) was 0.669, the relative viability (LCLC-103H; first compound 50 µM) was 0.733 and the relative viability (LCLC-103H; first compound 158.11 µM) was 0.55. It also gave a relative viability (LCLC-103H; first compound 500 µM) of 0.717, a relative viability (NCI-H2085; first compound 5 µM) of 0.745 and a relative viability (NCI-H2085; first compound 15.81 µM) of 0.712. For the same molecule, the relative viability (NCI-H2085; first compound 50 µM) was 0.725, the relative viability (NCI-H2085; first compound 158.11 µM) was 0.362 and the relative viability (NCI-H2085; first compound 500 µM) was 0.209. It also gave a relative viability (COR-L 105; first compound 5 µM) of 0.78, a relative viability (COR-L 105; first compound 15.81 µM) of 0.685 and a relative viability (COR-L 105; first compound 50 µM) of 0.739. For the same molecule, the relative viability (COR-L 105; first compound 158.11 µM) was 0.268, the relative viability (COR-L 105; first compound 500 µM) was 0.28 and the relative viability (NCI-H2087; first compound 5 µM) was 0.517. It also gave a relative viability (NCI-H2087; first compound 15.81 µM) of 0.522, a relative viability (NCI-H2087; first compound 50 µM) of 0.627 and a relative viability (NCI-H2087; first compound 158.11 µM) of 0.0403. It also gave a relative viability (NCI-H2087; first compound 500 µM) of 0.0077.
